{"source": "a melting point compilation (Tetko et al.; mined from patent text by program, amines drawn as free bases though some values may be those of a salt)", "data": [{"units": {"melting point": "°C"}, "values": [{"smiles": "Cc1cccc(NS(=O)(=O)c2ccc(N3CCNC3=O)cc2)c1", "melting point": "188 to 190"}, {"smiles": "OCCCOc1cccc2sccc12", "melting point": 82}, {"smiles": "COc1cc(Nc2c(C#N)cnc3cc(-c4ncccc4CN4CCOCC4)ccc23)c(Cl)cc1Cl", "melting point": "151 to 154"}, {"smiles": "CC(C)CC1(C(CCN2C(=O)c3ccc(F)cc3C2=O)C(=O)NO)CCN(CCc2ccccc2)C1=O", "note": "(configuration not stated)", "melting point": "143 to 144"}, {"smiles": "COc1cc(-n2c(=O)cc(C(F)(F)F)[nH]c2=O)ccc1C#N", "melting point": "> 230"}, {"smiles": "O=S(=O)(c1ccc(Nc2ccnc3cc(C(F)(F)F)ccc23)cc1)N1CCN(c2ccccn2)CC1", "melting point": "202 to 203"}, {"smiles": "Cc1ccc(S(=O)(=O)N2CCC(S(=O)(=O)c3ccc(Cl)cc3)CC2)cc1", "melting point": "263 to 264"}, {"smiles": "COC(=O)c1cnc(S)n1C1CC(C)c2ccccc21", "note": "(configuration not stated)", "melting point": 177}, {"smiles": "CC/C(=C(\\c1ccc(/C=C/C(=O)O)cc1)c1ccc(OC(=O)OC)cc1)c1ccccc1", "melting point": "140 to 142"}, {"smiles": "O=C(O)Cn1c(=O)n(Cc2ccccc2)c2ccccc21", "melting point": "200 to 202"}, {"smiles": "CC(=O)Oc1cccc2c1C(=O)C(CN1CCC(O)(c3ccccc3)CC1)CC2", "note": "(configuration not stated)", "melting point": "170 to 172"}, {"smiles": "CCNC(=S)NC1CC(C)(C)NC(C)(C)C1", "melting point": 134}, {"smiles": "COC(=O)c1cnc2cccc(O)c2c1", "melting point": 200}, {"smiles": "COC(=O)c1c(-c2ccc(C)cc2)c2cc(OCc3ccccc3)ccc2c(=O)n1CC(C)C", "melting point": "142 to 143"}, {"smiles": "CC1(C)C2CC[C@]1(C)C(=O)C(C(=O)Nc1cc(Cl)cc(Cl)c1)C2=O", "note": "(some centres not stated)", "melting point": "112 to 114"}, {"smiles": "O=C(Cc1ccc(F)cc1)N1C(=O)OC[C@@H]1Cc1ccccc1", "melting point": "64 to 66"}, {"smiles": "COc1cc(C)c(C(C)O)cc1NC(=O)N1CCN(c2cc(C)cc(C)c2)CC1", "note": "(configuration not stated)", "melting point": "140 to 142"}, {"smiles": "CC(=O)Nc1c(C(=O)c2cc(F)cc(F)c2)[nH]c2cc(Cl)ccc12", "melting point": "232 to 233"}, {"smiles": "CCCCNS(=O)(=O)CC(O)(CCCC)C1OC(C)(C)N(C(=O)OC(C)(C)C)C1CC1CCCCC1", "note": "(configuration not stated)", "melting point": "138 to 140"}, {"smiles": "CNC(=S)NNCC1CC2c3cccc4[nH]cc(c34)CC2N(C)C1", "note": "(configuration not stated)", "melting point": "220 to 221"}, {"smiles": "Cc1nc(C(=O)O)cnc1Cl", "melting point": "116 to 117"}, {"smiles": "Clc1ccc2c(c1)C(Br)Cn1cccc1S2", "note": "(configuration not stated)", "melting point": "106 to 107"}, {"smiles": "CCN(CC)CCOc1ccc2c(C(=O)NC(=N)N)cccc2c1", "melting point": "168 to 169"}, {"smiles": "COc1ccc(C(CC(=O)NCc2ccccc2)N2C(=O)c3ccccc3C2=O)cc1OC", "note": "(configuration not stated)", "melting point": "208 to 210"}, {"smiles": "CC(C)[C@H](NC(=O)N(C)Cc1cccnc1)C(=O)N[C@@H](Cc1ccccc1)C[C@H](O)[C@H](Cc1ccccc1)NC(=O)[C@@H](NC(=O)N(C)Cc1cccnc1)C(C)C", "melting point": "193 to 196"}, {"smiles": "C=CC(C)c1cc(C)c2c(c1)C(=O)CC2", "note": "(configuration not stated)", "melting point": "88 to 92"}, {"smiles": "CC(C)(C)C(=O)NCCC(=O)NC1CCCCC1Nc1cccc2c1C(=O)c1ccccc1C2=O", "note": "(configuration not stated)", "melting point": 168}, {"smiles": "N#CCCCN1CC=C(c2ccccc2)CC1", "melting point": "57 to 59"}, {"smiles": "O=CN1CCN(C(=O)COc2cc(-c3ccccc3)nc3ccccc23)CC1", "melting point": 170}, {"smiles": "COC(=O)[C@@H](C)Oc1ccc(Oc2cnc3ccc(Cl)cc3n2)cc1", "melting point": 80}, {"smiles": "Cc1ccc(CNC(=O)c2ccc3n2Cc2ccccc2N(C(=O)c2ccc(-c4ccccc4C)c(C)c2)C3)cc1", "melting point": "179 to 181"}, {"smiles": "CC1(C)CC(=O)c2c(NCCCn3ccnc3)sc(-c3cc[nH]n3)c2C1", "melting point": 85}, {"smiles": "COc1ccc(CCNS(=O)(=O)c2ccc(N)cc2)cc1", "melting point": "144 to 146"}, {"smiles": "CC1=C(C(=O)c2ccc3c(c2)CCN(C(N)=O)C3)C(C)(C)CC1", "melting point": "40.1 to 41.4"}, {"smiles": "CCCCCCOc1nc(-c2ccccc2)sc1-c1ccccc1", "melting point": "70 to 72"}, {"smiles": "C[C@H]1O[C@@H](C(Cl)(Cl)Cl)OC(=O)[C@@H]1C", "melting point": "128 to 130"}, {"smiles": "COc1cc(-c2nc(-n3c(C)ccc3C)sc2SCC2CCCCC2)c(OC)cc1C", "melting point": "117 to 118"}, {"smiles": "COc1ccc(COCc2nc(C(C)C)c(I)[nH]2)cc1", "melting point": "78 to 79"}, {"smiles": "O=C(O)c1ccc(CCOc2c(F)ccc3nc(C(=O)NCc4cccc(OCCOc5nc[nH]n5)c4)[nH]c(=O)c23)cc1", "melting point": "122 to 124"}, {"smiles": "NC1CC(O)c2ccccc21", "note": "(configuration not stated)", "melting point": "108 to 110"}, {"smiles": "CCOC(=O)c1ccc(NC(=O)COC)cc1NC(=O)COC", "melting point": "90 to 91"}, {"smiles": "CC(C)(C)OC(=O)CN(C(=O)CN1C(=O)c2ccccc2C1=O)c1ccccc1Oc1ccccc1", "melting point": 145}, {"smiles": "Cc1ccc(C[C@@H](C(=O)O)[C@@H](O)c2ccc(F)cc2)cc1OC(F)(F)C(F)F", "note": "(racemic)", "melting point": "102 to 103"}, {"smiles": "O=C(O)c1cc(OCCCOc2ccc(OCc3ccccc3)cc2)cc(OCCCOc2ccc(OCc3ccccc3)cc2)c1", "melting point": "139 to 140"}, {"smiles": "Cc1cc(-n2ccnc2)c2cccc(OCc3c(Cl)ccc(S(=O)(=O)N4CCC[C@H]4C(=O)N4CCOCC4)c3Cl)c2n1", "melting point": 50}, {"smiles": "COc1ccc(CN2C(=O)[C@H](CO)[C@H]2S(=O)(=O)C(C)(C)C)cc1", "melting point": "121 to 122"}, {"smiles": "CCCCCC(C)(C)NC(=O)CN1C(=O)c2ccccc2C1=O", "melting point": 142}, {"smiles": "CN(C)c1ccc(-c2c(O)c3ccc(Cl)cc3[nH]c2=O)cc1", "melting point": "> 300"}, {"smiles": "Cc1oc(-c2ccccc2)nc1COc1ccc(COc2ncccc2CC#N)cc1", "melting point": "149 to 150"}, {"smiles": "CCOC(=O)OC1=C(c2c(C)cc(C)cc2C)C(=O)SC12CCN(OC)CC2", "melting point": "87 to 89"}, {"smiles": "O=C1CCCN1[C@@H]1c2cc(C(F)(F)C(F)(F)C(F)(F)F)ccc2OC(CF)(CF)[C@H]1O", "note": "(relative stereo)", "melting point": "174 to 175"}, {"smiles": "CCCN(CCC)Cc1csc(-c2ncn3c2CN(C)C(=O)c2cc(F)ccc2-3)n1", "melting point": "134 to 136"}, {"smiles": "CC(C)(C)CCNC(=O)NCCCl", "melting point": 84}, {"smiles": "CCc1cccc(CC(=O)O)c1OCCCc1cn(-c2ccc(C(F)(F)F)cn2)nc1C(C)C", "melting point": "155 to 156"}, {"smiles": "CC(C)(C)OC(=O)N1C(=O)C2(COc3cc4c(cc32)OCO4)c2c(Br)cccc21", "note": "(configuration not stated)", "melting point": "154 to 156"}, {"smiles": "COC(=O)Cc1ccc(OC[C@@H](C)NC[C@H](O)c2ccccc2)cc1", "melting point": "69 to 70"}, {"smiles": "COCCN(CCOC)c1ccc(Nn2c(C)ccc2C)nn1", "melting point": "112 to 114"}, {"smiles": "S=C1NCSc2ccsc21", "melting point": "136 to 138"}, {"smiles": "CCc1cc(C(=O)c2ccccc2Cl)c(-n2c(CNC(=O)c3ccc(Cl)c(Cl)c3)nnc2C(F)(F)F)s1", "melting point": "75 to 80"}, {"smiles": "O=[N+]([O-])c1ccc(CSc2cc(Cl)nc3c2ncn3C2OC(CO)C(O)C2O)cc1", "note": "(configuration not stated)", "melting point": "162 to 165"}, {"smiles": "CC(C)c1nn(-c2ccc(C(F)(F)F)cn2)cc1COc1cccc(CC(=O)O)c1", "melting point": "114 to 115"}, {"smiles": "O=c1[nH]c(SCCCN2CCN(c3ccccn3)CC2)nc2sc3c(c12)CCCC3", "melting point": "190 to 192"}, {"smiles": "CC1=C(c2ccc(O)cc2)C(=O)c2cc(O)c(O)cc21", "melting point": "226 to 229"}, {"smiles": "N#Cc1cc([N+](=O)[O-])ccc1Oc1ccc(Oc2ccccc2)cc1", "melting point": "150 to 152"}, {"smiles": "CC1(C)Oc2cccnc2C2OC21", "note": "(configuration not stated)", "melting point": "65 to 67"}, {"smiles": "Cc1nn(-c2ccc(C(=N)N)cc2)c(=O)n1-c1ccc(CCC(=O)O)cc1", "melting point": "303 to 305"}, {"smiles": "CCN(c1ccc(N2CCN(c3ccc(OC)cc3)CC2)cc1)c1nc(-c2ccccc2)cs1", "melting point": 224}, {"smiles": "CCOC(=O)C1=C(C)N(C(C)=O)C(c2csc(C)n2)=NC1c1ccccc1", "note": "(configuration not stated)", "melting point": "140 to 142"}, {"smiles": "CN1CCN(C(=O)c2nc(-c3ccccc3)nc3c2c2ccc(Cl)cc2n3C)CC1", "melting point": "236 to 238"}, {"smiles": "CCOC(=O)CNC(=O)c1ccc(O)cc1", "melting point": "205 to 209"}, {"smiles": "CC(=O)S[C@@H]1CCO[C@@H](/C(C)=C/c2ccc(C(F)(F)F)cc2)O1", "note": "(relative stereo)", "melting point": "128 to 129"}, {"smiles": "CNC(=S)C1(c2cc(C)ccn2)CCCS1", "note": "(configuration not stated)", "melting point": 181}, {"smiles": "CCOC(=O)CCn1c(=O)n2cc(C)cc2c2ccccc21", "melting point": "74 to 76"}, {"smiles": "O=C(Nc1ccc([N+](=O)[O-])cc1)N[C@H]1C[C@H](C(=O)O)Nc2cc(Cl)cc(Cl)c21", "note": "(relative stereo)", "melting point": "185 to 186"}, {"smiles": "COCCc1sc2ncnc(N)c2c1-c1ccc(NC(=O)c2ccccc2)cc1", "melting point": "200 to 202"}, {"smiles": "COc1ccc(Cl)c(Oc2c(C)nc(N3CCOCC3)nc2Cl)c1", "melting point": 134}, {"smiles": "Cn1nc(C(F)(F)C(F)(F)F)c(C(F)(F)F)c1-n1cc(-c2ccc(Cl)c(C(=O)NC3CC3)c2)nn1", "melting point": "150 to 152"}, {"smiles": "O=C(O)Cn1c(-c2cc(Br)co2)nc2cccnc21", "melting point": "229 to 231"}, {"smiles": "Brc1cccc2c1SSSSS2", "melting point": "93 to 98"}, {"smiles": "COc1ccc(-c2cccs2)c2c(OC)ccc(-c3cccs3)c12", "melting point": "216 to 218"}, {"smiles": "CCCCCCc1ccc(-c2cnn(C(C)(C)Cc3ccc(C)cc3)c2O)cc1", "melting point": "149 to 151"}, {"smiles": "CC(=O)NCC(=O)NCC(=O)N1CC1C#N", "note": "(configuration not stated)", "melting point": "70 to 76"}, {"smiles": "O=C(CCN1CCN(c2cccc(Cl)c2Cl)CC1)N1CCc2ccccc21", "melting point": "157 to 158"}, {"smiles": "COc1cc(COc2nn(-c3ccccc3)cc2/C=C/C(N)=O)ccc1OCc1nc(-c2ccco2)oc1C", "melting point": "187 to 188"}, {"smiles": "O=C(NCc1ccc(Cl)cc1)c1cnc2c(I)cc(CN3CCOCC3)cc2c1O", "melting point": "230 to 233"}, {"smiles": "COc1cccc(Oc2cccc(-c3ccccc3)c2)c1", "melting point": "41 to 42"}, {"smiles": "CCCC(CCC)n1nnc2c(Nc3c(Cl)cc(OC)cc3OC)nc(C)cc21", "melting point": "157 to 158"}, {"smiles": "CC(=O)Oc1ccc(CC2SC(=O)NC2=O)cc1", "note": "(configuration not stated)", "melting point": "115 to 117"}, {"smiles": "C[C@H](NC(=O)C(SC(=O)c1ccccc1)SC(=O)c1ccccc1)C(=O)O", "melting point": "161 to 162"}, {"smiles": "O=C(O)C(O)c1cccs1", "note": "(configuration not stated)", "melting point": 75}, {"smiles": "CC1(C)OC(=O)Nc2ccc(-c3cccc(Cl)c3)cc21", "melting point": "158 to 159"}, {"smiles": "CC(=O)c1ccc(C2=CCCCCC2)cc1", "melting point": "36 to 38"}, {"smiles": "Cn1cccc1-c1cc(OC(F)F)n(-c2ccc(NC(=O)c3ccncc3F)cc2)n1", "melting point": "154 to 155"}, {"smiles": "CCCCc1nc(Cl)c(C(=O)O)n1Cc1ccc2oc(-c3ccccc3-c3nnn[nH]3)c(Br)c2c1", "melting point": "183 to 185"}, {"smiles": "O=C1COCC(c2ccc(F)c(F)c2)N1C(=O)NCCCN1CCC(O)(c2ccccc2)CC1", "note": "(configuration not stated)", "melting point": "85 to 88"}, {"smiles": "COc1ccc(-c2cn([C@H]3CN4CCC3CC4)nn2)cc1", "melting point": 122}, {"smiles": "CS(=O)c1n[nH]c2ccc(C(F)(F)F)cc12", "note": "(configuration not stated)", "melting point": "168 to 170"}]}]}
